{"source": "paper PMC8537277", "about": "(Pharmaceuticals, 2021)", "key": {"[1]": {"experiment": "Cytotoxicity assay", "type": "cell-based, canine", "conditions": "dog, MDCK cells", "protocol": "This procedure was performed as reported elsewhere. Briefly, two-fold serial dilutions of each peptide in culture medium were incubated at 37 °C with confluent MDCK cells grown in 96-well tissue culture microplates (Nalge Nunc Europe Ltd., Neerijse, Belgium). After 24 h, the following parameters were evaluated: cell morphology, which was examined by light microscopy; cell viability, which was determined by neutral red staining as already described by us; and cell proliferation, which was evaluated quantitatively by microscopic counts after dispersion into individual cells with trypsin."}, "[2]": {"system": "A/Roma-ISS/02/08 H1N1 oseltamivir-sensitive virus", "conditions": "reference peptides; ref Scala et al. (2017) [14]; read-out: HI Titer (IC50) A/Roma-ISS/02/08 H1N1; cited from earlier work"}, "[3]": {"system": "A/Parma/05/06 H3N2", "design": "method as in Scala et al. (2017) [14]", "conditions": "reference peptides; ref Scala et al. (2017) [14]; read-out: HI Titer (IC50) A/Parma/05/06 H3N2; cited from earlier work"}, "[4]": {"system": "A/Roma-ISS/02/08 H1N1", "conditions": "MDCK cells; ref Scala et al. (2017) [14]; cited from earlier work"}, "[5]": {"system": "A/Parma/05/06 H3N2", "conditions": "MDCK cells; ref Scala et al. (2017) [14]; cited from earlier work"}, "[6]": {"system": "A/Parma/24/09 H1N1", "conditions": "MDCK cells; ref Scala et al. (2017) [14]; cited from earlier work"}, "[7]": {"molecular_target": "HA (H1N1 hemagglutinin, Cat No.: Z03181, GenScript)", "conditions": "read-out: MST KD"}, "[8]": {"molecular_target": "HA (H1N1 hemagglutinin, Cat No: Z03181, GenScript)", "conditions": "read-out: SPR KD"}, "[9]": {"system": "A/Roma-ISS/02/08 H1N1 oseltamivir-sensitive virus", "conditions": "A/Roma-ISS/02/08 oseltamivir-sensitive virus, 1 h"}, "[10]": {"system": "A/Parma/05/06 H3N2", "conditions": "A/Parma/05/06, 1 h"}}, "note": "Several values for one entry are separate records, joined by “and”; a condition that tells them apart may be missing. Equal values may be shown once. Read-outs that look alike come from different tables or passages of the source. Where a SMILES comes first, the peptide text is derived from it.", "data": [{"compound": "CC(=O)N[C@@H](CO)C(=O)N[C@@H](CCCCN)C(=O)N[C@@H](Cc1c[nH]cn1)C(=O)N[C@@H](CO)C(N)=O", "note": "[Peptide 1, Ac-SKHS-NH2] (Ac-SKHS-NH2)", "values": [{"measurement": "CC50 at 24 h", "setting": "[1]", "value": "> 25000", "unit": "nM"}, {"measurement": "IC50", "setting": "[2]", "value": 0.1, "unit": "nM"}, {"measurement": "IC50", "setting": "[3]", "value": 12, "unit": "nM"}, {"measurement": "EC50", "setting": "[4]", "value": 0.003, "unit": "nM"}, {"measurement": "EC50", "setting": "[5]", "value": 0.005, "unit": "nM"}]}, {"compound": "CC(=O)N[C@@H](CO)C(=O)N[C@@H](CC(C)C)C(=O)N[C@@H](CC(=O)O)C(=O)N[C@@H](CS)C(N)=O", "note": "[Peptide 2, Ac-SLDC-NH2] (Ac-SLDC-NH2)", "values": [{"measurement": "IC50", "setting": "[3]", "value": 1.5, "unit": "nM"}, {"measurement": "EC50", "setting": "[6]", "value": 0.0046, "unit": "nM"}, {"measurement": "EC50", "setting": "[5]", "value": 0.0043, "unit": "nM"}]}, {"compound": "CC(=O)N[C@@H](C)C(=O)N[C@@H](CCCCN)C(=O)N[C@@H](Cc1c[nH]cn1)C(=O)N[C@@H](CO)C(N)=O", "note": "[Peptide 3] (Ac-AKHS-NH2)", "values": [{"measurement": "Kd", "setting": "[7]", "value": "3120 ± 110", "unit": "nM"}, {"measurement": "Kd", "setting": "[8]", "value": "2700 ± 40", "unit": "nM"}, {"measurement": "IC50", "setting": "[9]", "value": 0.6, "unit": "nM"}, {"measurement": "IC50", "setting": "[10]", "value": 12, "unit": "nM"}]}, {"compound": "CC(=O)N[C@@H](CO)C(=O)N[C@@H](C)C(=O)N[C@@H](Cc1c[nH]cn1)C(=O)N[C@@H](CO)C(N)=O", "note": "[Peptide 4, Ac-SAHS-NH2] (Ac-SAHS-NH2)", "values": [{"measurement": "CC50 at 24 h", "setting": "[1]", "value": "> 25000", "unit": "nM"}, {"measurement": "Kd", "setting": "[7]", "value": "8.22 nM and 8.2 nM"}, {"measurement": "Kd", "setting": "[8]", "value": "3.57 ± 0.12", "unit": "nM"}]}, {"compound": "CC(=O)N[C@@H](CO)C(=O)N[C@@H](CCCCN)C(=O)N[C@@H](C)C(=O)N[C@@H](CO)C(N)=O", "note": "[Peptide 5] (Ac-SKAS-NH2)", "values": [{"measurement": "Kd", "setting": "[7]", "value": "7010 ± 90", "unit": "nM"}, {"measurement": "Kd", "setting": "[8]", "value": "1030 ± 10", "unit": "nM"}]}, {"compound": "CC(=O)N[C@@H](CO)C(=O)N[C@@H](CCCCN)C(=O)N[C@@H](Cc1c[nH]cn1)C(=O)N[C@@H](C)C(N)=O", "note": "[Peptide 6] (Ac-SKHA-NH2)", "values": [{"measurement": "Kd", "setting": "[7]", "value": "11400 ± 170", "unit": "nM"}, {"measurement": "Kd", "setting": "[8]", "value": "6750 ± 810", "unit": "nM"}]}, {"compound": "CC(=O)N[C@@H](C)C(=O)N[C@@H](CC(C)C)C(=O)N[C@@H](CC(=O)O)C(=O)N[C@@H](CS)C(N)=O", "note": "[Peptide 7] (Ac-ALDC-NH2)", "values": [{"measurement": "Kd", "setting": "[7]", "value": "21200 ± 410", "unit": "nM"}, {"measurement": "Kd", "setting": "[8]", "value": "27.7 ± 1.7", "unit": "nM"}]}, {"compound": "CC(=O)N[C@@H](CO)C(=O)N[C@@H](C)C(=O)N[C@@H](CC(=O)O)C(=O)N[C@@H](CS)C(N)=O", "note": "[Peptide 8] (Ac-SADC-NH2)", "values": [{"measurement": "Kd", "setting": "[7]", "value": "6380 ± 210", "unit": "nM"}, {"measurement": "Kd", "setting": "[8]", "value": "2190 ± 510", "unit": "nM"}]}, {"compound": "CC(=O)N[C@@H](CO)C(=O)N[C@@H](CC(C)C)C(=O)N[C@@H](C)C(=O)N[C@@H](CS)C(N)=O", "note": "[Peptide 9] (Ac-SLAC-NH2)", "values": [{"measurement": "Kd", "setting": "[7]", "value": "5.8 ± 0.3", "unit": "nM"}, {"measurement": "Kd", "setting": "[8]", "value": "2570 ± 340", "unit": "nM"}]}, {"compound": "CC(=O)N[C@@H](CO)C(=O)N[C@@H](CC(C)C)C(=O)N[C@@H](CC(=O)O)C(=O)N[C@@H](C)C(N)=O", "note": "[Peptide 10] (Ac-SLDA-NH2)", "values": [{"measurement": "Kd", "setting": "[7]", "value": "2690 ± 90", "unit": "nM"}, {"measurement": "Kd", "setting": "[8]", "value": "343 ± 19", "unit": "nM"}, {"measurement": "IC50", "setting": "[10]", "value": 0.0021, "unit": "nM"}]}]}
